{"source": "patent US20260130952A1", "about": "“ENGINEERED BACTERIA AND METHODS OF USE IN TUMOR REMODELING” (priority 2021, published 2026)", "system": "4T1 tumors", "assay": "Antitumor study in 4T1 syngeneic tumor model", "assay_type": "in vivo, BALB/cJ mice", "protocol": "6-8 weeks old female BALB/cJ and male C57BL/6 mice (Jackson Labs) were used in all experiments. For tumor induction, […] tumor cells/0.1 ml saline (4T1, MDA-MB-231, RInk1, PANC1, MC38) were injected subcutaneously in the shaved right flank of anesthetized (2% isoflurane) mice. Tumor measurements were taken every alternate day and tumor volume was calculated using the following formula: 0.5*length*width*width. For therapeutic assessment or bioluminescent imaging, each bacterial dose contained […] bacteria suspended in 0.1 ml saline was administered intravenously. Lapatinib was suspended in a solution containing 0.5% w/v HPMC and 0.10% w/v Tween 80 and each dose delivered 5 mg/Kg orally. At the study end point the mice were euthanized via carbon dioxide inhalation and cervical dislocation followed by collection of organs. For cytokine profiling, blood withdrawal was performed after a period of 24 hours via the submandibular vein and collected in tubes containing heparin as an anticoagulant (40 U/ml of blood). […]\nTo test the hypothesis, mice were treated orally with lapatinib at a dose of 5 mg/kg (FIG. 5A). The following 5 treatment groups were assessed in parallel: control mice with saline injections, non-hypervesiculating ECHy+lapatinib, ΔECHy, lapatinib and ΔECHy+lapatinib (n=5). Tumor volume was measured every alternate day. […]", "data": [{"smiles": "CS(=O)(=O)CCNCc1ccc(-c2ccc3ncnc(Nc4ccc(OCc5cccc(F)c5)c(Cl)c4)c3c2)o1", "note": "[lapatinib]", "values": [{"measurement": "median survival", "setting": "endpoint tumor size 1000 mm^3, bacteria 10^6 i.v., lapatinib 5 mg/kg oral, anti-PDL1 5 mg/kg", "result": 20, "unit": "days"}, {"measurement": "tumor growth rate / progression", "setting": "n=5", "result": "comparatively slower"}]}]}
